# Experimental data reported in US7612201B2, “Pyrazole compounds” (Vernalis (Cambridge) Limited, priority 2002, dated 2009).
# Molecular target: T1, yeast HSP90 (Saccharomyces cerevisiae, UniProt P02829)
# T1 construct: made in house; host or cells: E. coli
# Assay: Malachite green ATPase assay
# Type: biochemical
# Conditions: activity range
# Excerpt: The intrinsic ATPase activity of HSP90 may be measured using yeast HSP90 as a model system. The assay, based on the use of malachite green for the measurement of inorganic phosphate, was used to test the HSP90 inhibitory activity of the compounds of the Examples herein.
# Malachite Green ATPase Assay
# Chemicals are of the highest purity commercially available and all aqueous solutions are made up in AR water. Because of the need to minimise contamination with inorganic phosphate, precautions should be taken with solutions and apparatus used in the assays. Glassware and pH meters are rinsed with double distilled or deionised water before use and, wherever possible, plastic ware should be used. Gloves are worn for all procedures. • (1) Greiner 384-well (Greiner 781101) or Costar 384-well flat-bottomed polystyrene multiwell plates (VWR). • (2) Assay buffer of (a) 100 mM Tris-HCl, pH 7.4, (b) 150 mM KCl, (c) 6 mM MgCl2. Stored at room temperature. • (3) 0.0812% (w/v) malachite green (M 9636, Sigma Aldrich Ltd., Poole, UK). Stored at room temperature. • (4) 2.32% (w/v) polyvinyl alcohol USP (P 1097, Sigma Aldrich Ltd, Poole, UK) in boiling water (see Comment 1), allowed to cool, and stored at room temperature. • (5) 5.72% (w/v) ammonium molybdate in 6 M hydrochloric acid. Stored at room temperature. • (6) 34% (w/v) sodium citrate. Stored at room temperature. • (7) 100 mM ATP, disodium salt, special quality (47699, Sigma Aldrich). Stored at −20° C. • (8) E. coli expressed yeast HSP90 protein, purified >95% (see, e.g., Panaretou et al., 1998) and stored in 50 uL aliquots at −80° C.
# Method • 1. Dilute test compounds to 500 μM in AR water (DMSO concentration will be 2.5%). Transfer 2.5 μl of these compounds directly from the daughter plate to the assay plate, giving a final assay concentration of 100 μM. To obtain 12 point IC50 values, perform serial dilutions 1:2 to produce a range of assay concentrations from 100 μM to 97.6 nM (2.5% DMSO), and transfer 2.5 μl of each concentration into the assay plate. Column 1 in the assay plate contains no compound, as a negative control. An additional row with no compound is also used as a background. • 2. Prepare ATP by diluting 100 mM stock to 925 μM with assay buffer, and aliquot 5 μl of diluted ATP to each well including controls (final assay concentration 370 μM). • 3. Add 5 μl of buffer to background row. • 4. Dilute enzyme preparation to 1.05 μM with assay buffer, and aliquot 5 μl into each compound well and to the negative control column. • 5. Collect the reagents to the bottom of the well, cover plate with plate seal and incubate overnight at 37 degC. • 6. First thing in the morning prepare the Malachite Green Reagent. Add 2 parts of Malachite Green Solution, 1 part of Polyvinyl Alcohol Solution, 1 part of Ammonium Molybdate Solution, and 2 parts of AR water. • 7. Invert to mix, and leave for approximately 1 hour until the colour turns from brown to golden yellow. • 8. Add 40 μl of Malachite Green Reagent to each well, allow 5 mins for colour to develop. • 9. Add 5 μl of Sodium Citrate Reagent to each well (see comment 2) • 10. Re-cover with plate seal and shake on plate shaker for at least 15 mins. • 11. Measure Absorbance at 620 nm using a suitable plate reader (e.g. Victor, Perkin Elmer Life Sciences, Milton Keynes, UK).
# Comments • (1) The polyvinyl alcohol dissolves in boiling water with difficulty and stirring for 2-3 h is required. • (2) The time interval between addition of the malachite green reagent and the sodium citrate should be kept as short as possible in order to reduce the non-enzymatic hydrolysis of ATP. Once the sodium citrate is added, the colour is stable for up to 4 h at room temperature. • (3) Compounds can be added to the assay plates using a Biomek FX Robot (Beckman Coulter).
# T1 sequence (P02829 whole entry): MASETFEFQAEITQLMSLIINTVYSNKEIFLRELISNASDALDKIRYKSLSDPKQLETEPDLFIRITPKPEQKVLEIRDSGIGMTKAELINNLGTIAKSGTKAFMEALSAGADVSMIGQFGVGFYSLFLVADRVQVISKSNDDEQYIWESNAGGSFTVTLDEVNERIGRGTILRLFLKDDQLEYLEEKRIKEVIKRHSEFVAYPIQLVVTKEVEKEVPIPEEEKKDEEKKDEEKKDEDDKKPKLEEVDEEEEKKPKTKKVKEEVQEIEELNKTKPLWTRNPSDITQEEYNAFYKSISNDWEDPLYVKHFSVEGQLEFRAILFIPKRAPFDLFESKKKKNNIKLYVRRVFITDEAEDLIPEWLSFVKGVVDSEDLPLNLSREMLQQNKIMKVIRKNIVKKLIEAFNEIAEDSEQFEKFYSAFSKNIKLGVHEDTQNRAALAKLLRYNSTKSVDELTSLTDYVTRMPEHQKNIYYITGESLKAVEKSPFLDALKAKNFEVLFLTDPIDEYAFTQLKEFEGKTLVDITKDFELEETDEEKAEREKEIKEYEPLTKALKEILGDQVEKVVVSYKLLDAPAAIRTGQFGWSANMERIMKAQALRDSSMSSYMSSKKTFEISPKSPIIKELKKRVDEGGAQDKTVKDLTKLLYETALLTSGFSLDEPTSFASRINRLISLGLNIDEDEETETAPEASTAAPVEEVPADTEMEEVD
row,SMILES,IC50 [µM]
1,Oc1cc(O)c(-c2n[nH]cc2N2CCC(NCc3ccc(F)cc3)CC2)cc1Br [Example 80],< 50
2,CCN1CCN(c2c[nH]nc2-c2cc(Cl)c(O)cc2O)CC1 [Example 6],< 50
3,"NNC(=O)CN1CCN(c2c[nH]nc2-c2cc(Cl)c(O)cc2O)CC1 [Example 8, {4-[3-(5-Chloro-2,4-dihydroxy-phenyl)-1H-pyrazol-4-yl]-piperazin-1-yl}-acetic acid hydrazide]",> 50
4,N#CCOc1cc(O)c(-c2n[nH]cc2N2CCN(CC#N)CC2)cc1Cl [Example 11],> 50
5,Oc1cc(O)c(-c2n[nH]cc2N2CCC(NCc3ccccc3)CC2)cc1Br [Example 79],< 50
6,Cc1ccc(C)c(CCc2cc(-c3n[nH]cc3N3CCNCC3)c(O)cc2O)c1 [Example 74],< 50
7,Oc1cc(O)c(-c2n[nH]cc2N2CCNCC2)cc1CCc1ccc2c(c1)OCO2 [Example 65],< 50
8,NS(=O)(=O)c1ccc(CNC2CCN(c3c[nH]nc3-c3cc(Br)c(O)cc3O)CC2)cc1 [Example 86],< 50
9,COC(=O)c1ccc(CN2CCN(c3c[nH]nc3-c3cc(Cl)c(O)cc3O)CC2)cc1 [Example 21],< 50
10,COc1ccc(CN2CCN(c3c[nH]nc3-c3cc(Cl)c(O)cc3O)CC2)cc1 [Example 26],< 50
11,Cc1ccc(CCc2cc(-c3n[nH]cc3N3CCNCC3)c(O)cc2O)c(C)c1 [Example 73],< 50
12,N#Cc1ccc(CN2CCN(c3c[nH]nc3-c3cc(Cl)c(O)cc3O)CC2)cc1 [Example 22],< 50
13,COc1ccc(OC)c(CCc2cc(-c3n[nH]cc3N3CCNCC3)c(O)cc2O)c1 [Example 67],< 50
14,COC(=O)c1ccc(C(=O)N2CCN(c3c[nH]nc3-c3cc(Cl)c(O)cc3O)CC2)cc1 [Example 32],> 50
15,Oc1cc(O)c(-c2n[nH]cc2N2CCN(Cc3ccc(Cl)cc3)CC2)cc1Cl [Example 18],< 50
16,Cc1ccc(CCc2cc(-c3n[nH]cc3N3CCNCC3)c(O)cc2O)cc1 [Example 72],< 50
17,O=[N+]([O-])c1ccc(CNC2CCN(c3c[nH]nc3-c3cc(Br)c(O)cc3O)CC2)cc1 [Example 84],< 50
18,Oc1cc(O)c(-c2n[nH]cc2N2CCN(Cc3ccc(-n4cccn4)cc3)CC2)cc1Cl [Example 39],< 50
19,CCn1cc(N2CCNCC2)c(-c2cc(Br)c(O)cc2O)n1 [Example 59],> 50
20,COCCN1CCN(c2c[nH]nc2-c2cc(Cl)c(O)cc2O)CC1 [Example 14],< 50
21,CC(C)(C)OC(=O)CN1CCN(c2c[nH]nc2-c2cc(Cl)c(O)cc2O)CC1 [Example 41],> 50

row,SMILES,IC50 [µM]
1,NC(=O)c1ccc(CN2CCN(c3c[nH]nc3-c3cc(Cl)c(O)cc3O)CC2)cc1 [Example 36],< 50
2,O=C(O)c1ccc(CN2CCN(c3c[nH]nc3-c3cc(Cl)c(O)cc3O)CC2)cc1 [Example 35],< 50
3,C#CC[N+]1(CC#C)CCN(c2c[nH]nc2-c2cc(Cl)c(O)cc2O)CC1 [Example 27],< 50
4,N#Cc1ccccc1CN1CCN(c2c[nH]nc2-c2cc(Cl)c(O)cc2O)CC1 [Example 23],< 50
5,Cn1ncc(N2CCNCC2)c1-c1cc(Br)c(O)cc1O [Example 56],> 50
6,Cn1cc(N2CCNCC2)c(-c2cc(Br)c(O)cc2O)n1 [Example 57],> 50
7,Oc1cc(O)c(-c2n[nH]cc2N2CCN(Cc3cccnc3)CC2)cc1Cl [Example 7],< 50
8,OCCNC1CCN(c2c[nH]nc2-c2cc(Br)c(O)cc2O)CC1 [Example 98],< 50
9,NC(=O)c1cccc(CN2CCN(c3c[nH]nc3-c3cc(Cl)c(O)cc3O)CC2)c1 [Example 25],< 50
10,COC(=O)c1cccc(CN2CCN(c3c[nH]nc3-c3cc(Cl)c(O)cc3O)CC2)c1 [Example 16],< 50
11,Oc1cc(O)c(-c2n[nH]cc2N2CCNCC2)cc1Br [Example 55],> 50
12,CCNC1CCN(c2c[nH]nc2-c2cc(Br)c(O)cc2O)CC1 [Example 97],< 50
13,Oc1cc(O)c(-c2n[nH]cc2N2CCOCC2)cc1Cl [Example 3],> 50
14,Oc1cc(O)c(-c2n[nH]cc2N2CCNCC2)cc1CCc1cccc(F)c1 [Example 69],< 50
15,N#Cc1cccc(CN2CCN(c3c[nH]nc3-c3cc(Cl)c(O)cc3O)CC2)c1 [Example 19],< 50
16,OCCCN1CCN(c2c[nH]nc2-c2cc(Cl)c(O)cc2O)CC1 [Example 30],< 50
17,Oc1cc(O)c(-c2n[nH]cc2N2CCNCC2)cc1CCc1cccc2c1OCO2 [Example 66],< 50
18,Oc1cc(O)c(-c2n[nH]cc2N2CCN(CCc3ccccc3)CC2)cc1Cl [Example 34],< 50
19,"OCCN1CCN(c2c[nH]nc2-c2cc(Cl)c(O)cc2O)CC1 [Example 9, 4-Chloro-6-{4-[4-(2-hydroxy-ethyl)-piperazin-1-yl]-1H-pyrazol-3-yl}-benzene-1,3-diol]",> 50
20,Oc1cc(O)c(-c2n[nH]cc2N2CCN(Cc3ccccn3)CC2)cc1Cl [Example 31],< 50
21,Cc1cccc(CCc2cc(-c3n[nH]cc3N3CCNCC3)c(O)cc2O)c1 [Example 71],< 50

row,SMILES,IC50 [µM]
1,Oc1cc(O)c(-c2n[nH]cc2N2CCC(NCc3ccc4c(c3)OCO4)CC2)cc1Br [Example 83],< 50
2,NC(=O)CN1CCN(c2c[nH]nc2-c2cc(Cl)c(O)cc2O)CC1 [Example 20],< 50
3,"CC(C)(C)OC(=O)N1CCN(c2c[nH]nc2-c2cc(Cl)c(O)cc2O)CC1 [Example 1, 4-[3-(5-Chloro-2,4-dihydroxy-phenyl)-1H-pyrazol-4-yl]-piperazine-1-carboxylic acid tert-butyl ester]",> 50
4,Oc1cc(O)c(-c2n[nH]cc2N2CCN(Cc3ncon3)CC2)cc1Cl [Example 17],< 50
5,CCOC(=O)Cn1cc(N2CCNCC2)c(-c2cc(Br)c(O)cc2O)n1 [Example 64],> 50
6,Oc1cc(O)c(-c2nn(Cc3ccccc3)cc2N2CCNCC2)cc1Br [Example 63],> 50
7,COc1ccc(CNC2CCN(c3c[nH]nc3-c3cc(Br)c(O)cc3O)CC2)cc1 [Example 81],< 50
8,CC(c1ccccc1)N1CCN(c2c[nH]nc2-c2cc(Cl)c(O)cc2O)CC1 (stereo not shown) [Example 43],< 50
9,N#CCCCN1CCN(c2c[nH]nc2-c2cc(Cl)c(O)cc2O)CC1 [Example 13],< 50
10,Cn1c(CN2CCN(c3c[nH]nc3-c3cc(Cl)c(O)cc3O)CC2)nc2ccccc21 [Example 33],> 50
11,Oc1cc(O)c(-c2n[nH]cc2N2CCNCC2)cc1CCc1ccc(F)cc1 [Example 70],< 50
12,COc1ccc(CCc2cc(-c3n[nH]cc3N3CCNCC3)c(O)cc2O)cc1 [Example 76],< 50
13,Oc1cc(O)c(-c2n[nH]cc2N2CCN(Cc3ccc(-c4cnns4)cc3)CC2)cc1Cl [Example 38],< 50
14,"CCNC(=O)c1[nH]nc(-c2cc(Cl)c(O)cc2O)c1N1CCNCC1 [Example 51, 5-(5-Chloro-2,4-dihydroxy-phenyl)-4-piperazin-1-yl-2H-pyrazole-3-carboxylic acid ethylamide]",< 50
15,O=C(CN1CCN(c2c[nH]nc2-c2cc(Cl)c(O)cc2O)CC1)N1CCOCC1 [Example 40],< 50
16,CN1CCN(c2c[nH]nc2-c2cc(Cl)c(O)cc2O)CC1 [Example 4],< 50
17,Oc1cc(O)c(-c2c(N3CCNCC3)cnn2Cc2ccccc2)cc1Br [Example 62],> 50
18,N#CCN1CCN(c2c[nH]nc2-c2cc(Cl)c(O)cc2O)CC1 [Example 10],> 50
19,Oc1cc(O)c(-c2n[nH]cc2N2CCC(NCc3ccc(Cl)cc3)CC2)cc1Br [Example 82],< 50
